The NIST ThermoML archive (doi:10.1016/j.fluid.2007.09.001)
± gives the expanded uncertainty stated by the source.

Experiments:
[1] = Liquid; Ebulliometric method (Recirculating still)
[2] = refractive index (Na D-line) (dimensionless); conditions: 293.15 K; 101.33 kPa; Liquid; Standard Abbe refractometry

Row | Normal boiling temperature [1] [°C] | refractive index [2] | Compound
1 | 116.97 ± 0.5 | 1.3993 ± 0.0021 | CCCCO [butan-1-ol]
2 | 181.06 ± 0.5 | 1.4375 ± 0.0021 | CC(O)C(C)O (stereo not drawn) [2,3-butanediol]
3 | 77.09 ± 0.5 | 1.3701 ± 0.0021 | CCOC(C)=O [ethyl acetate]

Row | Compound | Normal boiling temperature [1] [°C] | refractive index [2]
4 | CCCCOC(C)=O [butyl ethanoate] | 125.96 ± 0.5 | 1.3941 ± 0.0021
